Reference: patent US8778920B2, “3-cyano-quinoline derivatives with antiproliferative activity” (Janssen Pharmaceutica NV, priority 2004, dated 2014)
Counter-ions that a name gives are not always drawn.

System: ovarian carcinoma cell line (SKOV3)
Assay: Serum starved, EGF stimulated proliferation assay on ovarian carcinoma SKOV3 cells (MTT)
Type: cell-based
Settings: Homo sapiens, SK-OV-3, serum free, 72 hours EGF 100 ng/ml, b231 calls the values pIC50, read-out: SKOV3 cell (C3): IC50 (converted)
Procedure: The ovarian carcinoma cell line (SKOV3) was used in an epidermal growth factor stimulated cell proliferation assay, to assess the inhibitory effect of the compounds on EGF in whole cells. In a first step the SKOV3 cells were incubated for 24 hours in the presence of 10% FCS serum. In the second step the cells were incubated with the compounds to be tested in a serum free condition (37° C. and 5% (v/v) CO2) and subsequently stimulated for 72 hours with EGF at a final concentration of 100 ng/ml. The effect of the compounds on the EGF stimulation was finally assessed in a standard MTT cell viability assay.

SMILES: COc1cc2ncc(C#N)c3c2cc1OCCCCCNCc1ccc(Br)cc1N3 [Compound 2, 4,6-ethanediylidenepyrido[4,3-b][6,1,12]benzoxadiazacyclopentadecine-1-carbonitrile, 17-bromo-8,9,10,11,12,13,14,19-octahydro-20-methoxy-, monohydrochloride]
- IC50: 158 nM
